Measured values as given in ChEMBL document CHEMBL1914458 (Eur J Med Chem, 2011).

How the values were obtained:
[1] = Inhibition of self-mediated amyloid beta (1 to 42) aggregation at 10 uM after 48 hrs by thioflavin T fluorescence assay
[2] = Antioxidant activity assessed as trolox equivalent of AAPH-induced peroxyl radical scavenging activity at 0.5 to 10 uM after 10 mins by oxygen radical absorbance capacity-fluorescein assay; format: functional
[3] = Inhibition of self-mediated amyloid beta (1 to 42) aggregation at 20 uM after 48 hrs by thioflavin T fluorescence assay
Cholinesterase = Cholinesterase (Equus caballus, UniProt P81908)
Sequence of Cholinesterase (P81908 whole entry): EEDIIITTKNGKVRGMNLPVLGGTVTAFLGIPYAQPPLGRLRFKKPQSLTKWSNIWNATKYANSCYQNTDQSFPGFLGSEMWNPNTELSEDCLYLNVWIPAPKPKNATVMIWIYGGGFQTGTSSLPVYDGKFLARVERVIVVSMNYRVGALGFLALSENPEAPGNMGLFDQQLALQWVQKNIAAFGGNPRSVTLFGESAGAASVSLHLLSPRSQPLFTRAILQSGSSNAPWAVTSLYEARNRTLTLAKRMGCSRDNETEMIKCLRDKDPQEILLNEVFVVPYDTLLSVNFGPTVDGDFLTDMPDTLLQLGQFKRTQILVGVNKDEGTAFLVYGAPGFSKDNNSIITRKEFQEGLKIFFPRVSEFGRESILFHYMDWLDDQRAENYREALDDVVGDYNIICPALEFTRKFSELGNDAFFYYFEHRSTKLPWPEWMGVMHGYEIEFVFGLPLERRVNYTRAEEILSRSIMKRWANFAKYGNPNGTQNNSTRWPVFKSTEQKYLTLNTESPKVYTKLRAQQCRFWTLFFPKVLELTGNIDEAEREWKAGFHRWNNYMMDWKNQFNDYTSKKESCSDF
Description: Inhibition of equine serum BuChE using butyrylthiocholine chloride as substrate preincubated for 15 mins by Ellman's method

Acetylcholinesterase = Acetylcholinesterase (Electrophorus electricus, UniProt O42275)
Sequence of Acetylcholinesterase (O42275 whole entry): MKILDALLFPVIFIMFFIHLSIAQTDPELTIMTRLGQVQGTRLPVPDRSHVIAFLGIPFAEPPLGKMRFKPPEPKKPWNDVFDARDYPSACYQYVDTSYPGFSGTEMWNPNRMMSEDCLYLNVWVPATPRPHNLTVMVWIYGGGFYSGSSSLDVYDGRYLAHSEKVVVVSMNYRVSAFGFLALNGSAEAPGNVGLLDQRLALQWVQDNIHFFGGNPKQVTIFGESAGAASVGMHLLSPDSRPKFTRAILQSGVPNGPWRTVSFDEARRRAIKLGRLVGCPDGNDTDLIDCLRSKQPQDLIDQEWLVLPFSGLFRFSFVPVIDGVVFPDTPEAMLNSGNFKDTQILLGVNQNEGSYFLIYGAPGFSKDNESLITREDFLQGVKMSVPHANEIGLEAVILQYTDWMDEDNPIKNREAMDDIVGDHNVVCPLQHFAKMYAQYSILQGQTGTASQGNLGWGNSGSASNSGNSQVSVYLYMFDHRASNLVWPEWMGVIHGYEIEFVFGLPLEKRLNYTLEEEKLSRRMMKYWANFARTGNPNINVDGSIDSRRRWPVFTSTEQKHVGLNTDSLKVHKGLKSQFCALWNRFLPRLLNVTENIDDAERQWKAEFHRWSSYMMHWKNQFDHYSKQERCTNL
Description: Inhibition of electric eel AChE using acetylthiocholine chloride substrate as substrate preincubated for 15 mins by Ellman's method

SMILES | inhibition [1] | Ratio [2] | inhibition [3] | IC50 (Cholinesterase) | IC50 (Acetylcholinesterase)
COc1ccc2cc3[n+](cc2c1NCCc1ccc(C)cc1)CCc1cc2c(cc1-3)OCO2 | 80% | 4.56 | 94% | 0.821 µM | 0.449 µM
COc1ccc2cc3[n+](cc2c1NCCCCOc1cccnc1)CCc1cc2c(cc1-3)OCO2 |  | 4.63 |  | 2.94 µM | 1.17 µM
COc1ccc2cc3[n+](cc2c1OC)CCc1cc2c(cc1-3)OCO2 | 8.9% |  | 36.3% |  | 
COc1ccc2cc3[n+](cc2c1NCCc1ccc(Cl)cc1Cl)CCc1cc2c(cc1-3)OCO2 | 81.3% | 3.36 | 93.6% | 0.424 µM | 0.13 µM
COc1ccc2cc3[n+](cc2c1NCCc1ccccc1C)CCc1cc2c(cc1-3)OCO2 | 80% | 4.05 | 95% | 0.713 µM | 0.027 µM
COc1ccc2cc3[n+](cc2c1NCCCCOc1cccc2ccccc12)CCc1cc2c(cc1-3)OCO2 |  | 2.49 |  | 0.511 µM | 0.4 µM
COc1ccc2cc3[n+](cc2c1NCCCCCCOc1ccccc1)CCc1cc2c(cc1-3)OCO2 |  | 2.8 |  | 1.3 µM | 1.42 µM
COc1ccc2cc3[n+](cc2c1NCc1ccccc1)CCc1cc2c(cc1-3)OCO2 |  | 4.32 |  | 2.28 µM | 0.936 µM
COc1ccc2cc3[n+](cc2c1NCCc1cccs1)CCc1cc2c(cc1-3)OCO2 | 72.8% | 4.18 | 87.8% | 0.555 µM | 0.608 µM
COc1ccc2cc3[n+](cc2c1NCCc1cccc(C)c1)CCc1cc2c(cc1-3)OCO2 | 79% | 4.73 | 93.6% | 0.674 µM | 0.091 µM
COc1ccc2cc3[n+](cc2c1NCCCOc1ccccc1)CCc1cc2c(cc1-3)OCO2 |  | 5.4 |  | 0.216 µM | 0.588 µM
COc1ccc2cc3[n+](cc2c1OCCCCOc1ccccc1)CCc1cc2c(cc1-3)OCO2 |  | 1 |  |  | 
COc1ccc(CCNc2c(OC)ccc3cc4[n+](cc23)CCc2cc3c(cc2-4)OCO3)cc1 | 79% | 4.68 | 91.1% | 2.88 µM | 0.99 µM
COc1ccc(CCNc2c(OC)ccc3cc4[n+](cc23)CCc2cc3c(cc2-4)OCO3)cc1OC | 54.1% | 5.3 | 70.1% | 5.82 µM | 0.16 µM
COc1ccc2cc3[n+](cc2c1NCCCCOc1ccccc1)CCc1cc2c(cc1-3)OCO2 |  | 3.68 |  | 1.2 µM | 0.349 µM
COc1ccc2cc3[n+](cc2c1NC(C)c1ccccc1)CCc1cc2c(cc1-3)OCO2 (stereo unspecified) |  | 2.17 |  | 3.28 µM | 1.91 µM
COc1ccc2[nH]cc(CCNc3c(OC)ccc4cc5[n+](cc34)CCc3cc4c(cc3-5)OCO4)c2c1 |  | 6.06 |  | 1.39 µM | 1.26 µM
COc1ccc2cc3[n+](cc2c1NCCc1ccc([N+](=O)[O-])cc1)CCc1cc2c(cc1-3)OCO2 | 73.7% | 2.83 | 82.6% | 0.841 µM | 0.693 µM
COc1ccc2cc3[n+](cc2c1NCCCc1ccccc1)CCc1cc2c(cc1-3)OCO2 |  | 3.51 |  | 0.785 µM | 0.68 µM
COc1ccc2cc3[n+](cc2c1NCC(C)C)CCc1cc2c(cc1-3)OCO2 |  | 5.12 |  | 2.02 µM | 1.14 µM
COc1ccc2cc3[n+](cc2c1NCCc1ccc(F)cc1)CCc1cc2c(cc1-3)OCO2 | 76.3% | 4.48 | 90.4% | 0.445 µM | 0.238 µM
COc1ccc2cc3[n+](cc2c1NCCCCCOc1ccccc1)CCc1cc2c(cc1-3)OCO2 |  | 3.64 |  | 1.56 µM | 1.09 µM
COc1ccc2cc3[n+](cc2c1NCCOc1ccccc1)CCc1cc2c(cc1-3)OCO2 |  | 5.15 |  | 0.727 µM | 0.688 µM
COc1cc(/C=C/C(=O)CC(=O)/C=C/c2ccc(O)c(OC)c2)ccc1O | 30.7% |  |  |  | 
COc1ccc2cc3[n+](cc2c1NCCCN(C)C)CCc1cc2c(cc1-3)OCO2 |  | 5.7 |  | 6.32 µM | 0.576 µM
COc1ccc2cc3[n+](cc2c1NCCc1ccccc1)CCc1cc2c(cc1-3)OCO2 | 79.2% | 4.8 | 92.2% | 0.406 µM | 0.209 µM
COc1ccc2cc3[n+](cc2c1NCCc1ccccn1)CCc1cc2c(cc1-3)OCO2 |  | 6.4 |  | 2.5 µM | 1.16 µM
